BindingDB's records for doi:10.1021/jm9606507 (Warner-Lambert, 1997)

Test: Inhibition of Endothelin A receptor mediated (ET-1) release of arachidonic acid from rabbit renal artery vascular smooth muscle cells

Which IC50 does the source give for COc1ccc(C(=O)/C(Cc2cc(OC)c(OC)c(OC)c2)=C(\C(=O)O)c2ccc3c(c2)OCO3)cc1C [Sodium; (Z)-2-benzo[1,3]dioxol-5-yl-4-(4-methoxy-3-methyl-phenyl)-4-oxo-3-(3,4,5-trimethoxy-benzyl)-but-2-enoate] here?
The IC50 was 0.98 nM.
